Source: patent EP1043336A2, “Stereospecific antibodies for imidazolinone herbicides” (The Regents of the University of California, priority 1999, dated 2000)

How the values were obtained:
Assay type in all cases: binding, mouse
[1] = molecular target: MAb 3A5 (VH and VL N-termini SEQ.ID NOS. 1 and 2); experiment: Kinetic exclusion fluoroimmunoassay (KinExA), equilibrium dissociation constant; conditions: hapten conjugate 16-BSA, racemic hapten conjugate
Protocol: (§1) 1. Binding Kinetics. The equilibrium dissociation constants (KD) for MAbs 3A2 and 3A5 were measured by kinetic exclusion fluoroimmunoassay (KinExA) (Blake, D. A., et al. 1997. Characterization of a metal-specific monoclonal antibody. In: Immunochemical Technology for Environmental Applications (ACS Symposium Series 657), eds. DS Aga, EM Thurmann, pp. 49-60. Washington, D.C.: American Chemical Society.), and also in a Pharmacia BIAcore surface plasmon resonance instrument (Malmborg, A.-C. and Borrebaeck, C. A. K. 1995. BIAcore as a tool in antibody engineering. J. Immunol. Methods 183: 7-13.). Since the hapten conjugates used in these rate studies were racemic mixtures, the dissociation constants obtained can only be a median rate for the different chiral isomers.
(§2) The KinExA directly measures free antibody in solution equilibrium by trapping it on beads coated with hapten conjugate. […] 2. […] 4.

[2] = molecular target: MAb 3A2; experiment: as above; conditions: hapten conjugate 16-BSA, racemic hapten conjugate
Protocol: as §1, §2

[3] = molecular target: MAb 3A5 (VH and VL N-termini SEQ.ID NOS. 1 and 2); experiment: BIAcore surface plasmon resonance, equilibrium dissociation constant; conditions: racemic hapten conjugate
Protocol: as §1, §2

[4] = molecular target: MAb 3A2; experiment: as above; conditions: racemic hapten conjugate
Protocol: as §1, §2

[5] = test system: panel of monoclonal antibodies (MAbs); experiment: Detection of imidazolinones by the panel of MAbs (EIA)
Protocol: EIAs were done essentially as described by Karu et al (1994). For indirect EIAs, hapten-protein conjugates were adsorbed to wells of Immulon 2™ 96-well plates (Dynatech) in 0.1 mL of coating buffer (0.015 M Na2CO3 ― 0.035 M NaHCO3 ―0.003 M NaN3, pH 9.6). PBS-Tween containing 0.05% gelatin, 0.45 micron-filtered, was used as the diluent for antibodies and antibody-analyte mixtures, and as a blocking solution to prevent adventitious binding. The detecting antibody for the indirect EIAs was alkaline phosphatase conjugated goat anti-mouse IgG and IgM The substrate solution for color development was p-nitrophenyl phosphate 1 mg/mL, in 10% (w/v) diethanolamine-HCl, pH 9.8 ― 0.5 mM MgCl2 ― 3 mM NaN3. • 1. Indirect competition EIA. Indirect competition EIA (immobilized hapten conjugate) was used to evaluate the responses of mice, screen the MAbs, and quantify imidazolinone analytes. Optimal amounts of imidazolinone-BSA or -OVA conjugate for plate coating and dilutions for the hybridoma culture supernate or antiserum were determined by checkerboard assay. To perform the assay, wells were coated overnight at 4°C with a limiting amount of conjugate in 0.1 mL of coating buffer. Imidazolinone standards (0.5 to 5000 ppb) or unknowns were mixed with a limiting amount of antiserum or hybridoma culture fluid in the diluent and incubated overnight at 4°C in tightly sealed polypropylene tubes. The coated wells were washed and blocked with 0.2 mL of 0.05% gelatin in PBS-Tween for 30 minutes at room temperature. After another wash, aliquots (0.1 mL) of the antibody-analyte mixture were added to wells, and the remainder of the assay was performed as previously described (Karu et al., 1994). • 2. Direct competition EIA. Direct EIAs were performed by capturing the MAb on microwells and allowing the analyte to compete with a HRP-conjugated hapten for binding. Bound HRP-conjugate was then detected with a commercial HRP substrate. The sensitivity of this assay was enhanced by use of a commercial enzymatic signal amplification kit (GIBCO-BRL). Wells were coated with 200 or 500 ng of affinity-purified goat anti-mouse IgG or anti-mouse IgG Fc in the coating buffer at 4°C overnight. The next day, the wells were washed and blocked with PBS-Tween-gelatin for 30 minutes at room temperature, and then incubated for 1.5 hours at room temperature with hybridoma culture supernate. The plates were washed with PBS-Tween, and 0.1 mL of diluent containing the analyte and a limiting amount of biotinylated imidazolinone was added for 1.5 h at room temperature. The wells were washed three times with PBS-Tween, and Extravidin-alkaline phosphatase conjugate (Sigma) was then added for 30 minutes at room temperature. The plates were washed again with TBS (0.05 M Tris-HCl, pH 7.5,― 0.15 M NaCl) to remove remaining inorganic phosphate, which can inhibit the GIBCO-BRL EIA Amplification system. Substrate solution for the amplification step (0.05 mL) was added for 15 minutes at room temperature, followed by 0.05 mL of the enzymatic amplifying solution and chromogen. Color development at 492 nm was recorded. • 3. EIA Data Analysis. Color development was monitored on a Multiskan EIA reader (Flow Laboratories) interfaced with a Macintosh computer, and the rates of the reaction were calculated by linear regression. Competition EIA dose- response curves were fitted with a 4-parameter logistic equation (Karu et al., 1994).

## CCc1cnc(C2=NC(C)(C(C)C)C(=O)N2)c(C(=O)O)c1 (stereo not shown) [imazethapyr, 5-ethyl-2-(4-isopropyl-4-methyl-5-oxo-2-imidazolin-2-yl) nicotinic acid]
[1]
  Kd: 73 nM
[2]
  Kd: 11.4 nM
[3]; hapten conjugate 16-OA
  Kd: 9.6 nM
[3]; hapten conjugate 17-OA
  Kd: 10.8 nM
[4]; hapten conjugate 16-OA
  Kd: 24.7 nM
[4]; hapten conjugate 17-OA
  Kd: 51.6 nM
[5]
  detection range: 3 to 30 ng/mL
